biological target: T1, Beta-glucuronidase (Homo sapiens, UniProt P08236)
T1 sequence (P08236 whole entry): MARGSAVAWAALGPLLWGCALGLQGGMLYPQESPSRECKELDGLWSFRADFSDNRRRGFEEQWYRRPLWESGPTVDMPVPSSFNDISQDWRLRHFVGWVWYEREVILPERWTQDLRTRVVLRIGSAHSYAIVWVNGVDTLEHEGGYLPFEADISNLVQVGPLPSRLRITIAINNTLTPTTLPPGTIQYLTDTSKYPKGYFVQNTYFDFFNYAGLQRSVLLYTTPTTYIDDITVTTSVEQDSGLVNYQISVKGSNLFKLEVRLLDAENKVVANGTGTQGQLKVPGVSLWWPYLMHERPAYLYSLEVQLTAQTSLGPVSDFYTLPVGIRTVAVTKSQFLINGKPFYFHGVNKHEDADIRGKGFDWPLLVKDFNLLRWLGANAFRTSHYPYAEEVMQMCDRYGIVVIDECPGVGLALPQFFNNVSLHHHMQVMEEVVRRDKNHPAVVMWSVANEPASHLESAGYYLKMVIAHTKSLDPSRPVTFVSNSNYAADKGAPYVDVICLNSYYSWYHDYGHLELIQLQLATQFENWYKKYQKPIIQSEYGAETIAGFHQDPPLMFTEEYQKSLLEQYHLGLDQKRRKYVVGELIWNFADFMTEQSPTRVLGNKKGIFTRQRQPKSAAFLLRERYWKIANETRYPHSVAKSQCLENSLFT
Description: Inhibition of beta-D-glucuronidase (unknown origin) assessed as reduction in p-nitrophenol formation using p-nitrophenyl-beta-D-glucuronide substarte incubated at 37 degC for 30 mins by spectrophotometric method

IC50, Not Active:
Cc1cccc(-c2nnc(-c3ccc(-c4nc5cc(C)c(C)cc5[nH]4)cc3)o2)c1
Cc1cc2nc(-c3ccc(-c4nnc(-c5ccccc5C)o4)cc3)[nH]c2cc1C
COc1ccc(-c2nnc(-c3ccc(-c4nc5cc(C)c(C)cc5[nH]4)cc3)o2)cc1
